Measured values taken from US20150105252A1, “SUBSTITUTED PYRAZOLES AS HERBICIDES” (E I DU PONT DE NEMOURS AND COMPANY, priority 2013, published 2015).

Key:
crabgrass, large = test: Test E preemergence; type: in vivo, Digitaria sanguinalis; conditions: 21 days, scale 0 to 100
From the text: (§1) Seeds of plant species selected from bermudagrass (Cynodon dactylon), Surinam grass (Brachiaria decumbens), crabgrass, large (large crabgrass, Digitaria sanguinalis), crabgrass, naked (naked crabgrass, Digitaria nuda), foxtail, green (green foxtail, Setaria viridis), johnsongrass (Sorghum halepense), kochia (Kochia scoparia), morningglory (pitted morningglory, Ipomoea lacunosa), nutsedge, purple (purple nutsedge, Cyperus rotundus), ragweed (common ragweed, Ambrosia elation), mustard, black (black mustard, Brassica nigra), guineagrass (Panicum maximum), dallisgrass (Paspalum dilatatum), barnyardgrass (Echinochloa crus-galli), sandbur (southern sandbur, Cenchrus echinatus), sowthistle (common sowthistle, Sonchus oleraceous), ryegrass, Italian (Italian ryegrass, Lolium multiflorum), signalgrass (broadleaf signalgrass, Brachiaria platyphylla), dayflower, VA (Virginia (VA) dayflower, Commelina virginica), bluegrass (annual bluegrass, Poa annua), quackgrass (Elytrigia repens), mallow (common mallow, Malva sylvestris), buckwheat, wild (wild buckwheat, Polygonum convolvulus), leafy spurge (Euphorbia esula), common chickweed (Stellaria media), wild poinsettia (Euphorbia heterophylla), pigweed, palmer (palmer pigweed, Amaranthus palmeri), and pigweed (redroot pigweed, Amaranthus retroflexus) were planted into a blend of loam soil and sand and treated preemergence with test chemicals formulated in a non-phytotoxic solvent mixture which included a surfactant.
(§2) Treated plants and controls were maintained in a greenhouse for 21 days, after which time all species were compared to controls and visually evaluated. Plant response ratings, summarized in Table E, are based on a scale of 0 to 100 where 0 is no effect and 100 is complete control. A dash (-) response means no test result.

kochia [1] = test: Test E preemergence; type: in vivo, Kochia scoparia; conditions: 21 days, scale 0 to 100
From the text: as §1, §2

ragweed = test: Test E preemergence; type: in vivo, Ambrosia elation; conditions: 21 days, scale 0 to 100
From the text: as §1, §2

signalgrass = test: Test E preemergence; type: in vivo, Brachiaria platyphylla; conditions: 21 days, scale 0 to 100
From the text: as §1, §2

wild poinsettia = test: Test F postemergence; type: in vivo, Euphorbia heterophylla; conditions: scale 0 to 100
From the text: Seeds of plant species selected from corn (Zea mays), soybean (Glycine max), velvetleaf (Abutilon theophrasti), lambsquarters (Chenopodium album), wild poinsettia (Euphorbia heterophylla), pigweed, palmer (palmer pigweed, Amaranthus palmeri), common waterhemp (Amaranthus rudis), surinam grass (Brachiaria decumbens), large crabgrass (Digitaria sanguinalis), crabgrass, Brazil (Brazilian crabgrass, Digitaria horizontalis), fall panicum (Panicum dichotomiflorum), giant foxtail (Setaria faberii), green foxtail (Setaria viridis), goosegrass (Eleusine indica), johnsongrass (Sorghum halepense), common ragweed (Ambrosia elation), barnyardgrass (Echinochloa crus-galli), southern sandbur (Cenchrus echinatus), arrowleaf sida (Sida rhombifolia), Italian ryegrass (Lolium multiflorum), dayflower, VA (Virginia (VA) dayflower, Commelina virginica), field bindweed (Convolvulus arvensis), cocklebur (common cocklebur, Xanthium strumarium), morningglory (Ipomoea coccinea), nightshade (eastern black nightshade, Solanum ptycanthum), kochia (Kochia scoparia), yellow nutsedge (Cyperus esculentus), and hairy beggarticks (Bidens pilosa), were planted into a silt loam soil and treated preemergence with test chemicals formulated in a non-phytotoxic solvent mixture which included a surfactant.
At the same time, plants from these crop and weed species and also horseweed (Canada horseweed, Conyza canadensis), smartweed (ladysthumb smartweed, Polygonum persicaria), waterhemp_RES1, (ALS & Triazine resistant common waterhemp, Amaranthus rudis), and waterhemp_RES2, (ALS & HPPD resistant common waterhemp, Amaranthus rudis) were treated with postemergence applications of test chemicals formulated in the same manner. Plants ranged in height from 2 to 18 cm for postemergence treatments (1- to 4-leaf stage). Treated plants and controls were maintained in a greenhouse for 14 to 21 days, after which time all species were compared to controls and visually evaluated. Plant response ratings, summarized in Table F, are based on a scale of 0 to 100 where 0 is no effect and 100 is complete control. A dash (-) response means no test result.

hairy beggarticks = test: Test F postemergence; type: in vivo, Bidens pilosa; conditions: scale 0 to 100
Outline: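 Formulated in surfactant-containing non-phytotoxic solvent; pre: applied to seeded silt loam; post: applied to plants 2–18 cm (1–4 leaves); greenhouse 14–21 d; visual 0–100 rating vs controls.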

kochia [2] = test: Test A postemergence; type: in vivo, Kochia scoparia
Outline: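 Both timings tested concurrently in loam/sand soil: preemergence by directed soil spray, postemergence on plants of 2–10 cm at the one- to two-leaf stage. Greenhouse holding period was approximately 10 days before visual injury assessment (0–100, 0 = no effect).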

[3] = Postemergence, 500 g ai/ha, 0 to 100 scale (0 no effect, 100 complete control)
[4] = postemergence, 125 g ai/ha, about 10 days, visual rating on 0 to 100 scale (0 no effect, 100 complete control)

CCCc1cc(C(=O)NCC(F)(F)F)nn1Cc1ccnc(C(F)(F)F)c1 [Compound 105]
Plant response rating, Crabgrass, Large (crabgrass, large; 16 g ai/ha): 98
Plant response rating, Crabgrass, Large (crabgrass, large; 31 g ai/ha): 100
Plant response rating, Crabgrass, Large (crabgrass, large; 62 g ai/ha): 100
Plant response rating, Crabgrass, Large (crabgrass, large; 125 g ai/ha): 100
Plant response rating, Crabgrass, Large (crabgrass, large; 250 g ai/ha): 100
Plant response rating, Kochia (kochia [1]; 16 g ai/ha): 100
Plant response rating, Kochia (kochia [1]; 31 g ai/ha): 100
Plant response rating, Kochia (kochia [1]; 62 g ai/ha): 100
Plant response rating, Kochia (kochia [1]; 125 g ai/ha): 100
Plant response rating, Kochia (kochia [1]; 250 g ai/ha): 100
Plant response rating, Ragweed (ragweed; 16 g ai/ha): 70
Plant response rating, Ragweed (ragweed; 31 g ai/ha): 100
Plant response rating, Ragweed (ragweed; 62 g ai/ha): 100
Plant response rating, Ragweed (ragweed; 125 g ai/ha): 100
Plant response rating, Ragweed (ragweed; 250 g ai/ha): 100
Plant response rating, Signalgrass (signalgrass; 16 g ai/ha): 75
Plant response rating, Signalgrass (signalgrass; 31 g ai/ha): 98
Plant response rating, Signalgrass (signalgrass; 62 g ai/ha): 98
Plant response rating, Signalgrass (signalgrass; 125 g ai/ha): 98
Plant response rating, Signalgrass (signalgrass; 250 g ai/ha): 98
Plant response rating, Wild Poinsettia (wild poinsettia; Postemergence, 31 g ai/ha): 40
Plant response rating, Wild Poinsettia (wild poinsettia; Postemergence, 125 g ai/ha): 70
Plant response rating, Wild Poinsettia (wild poinsettia; Postemergence, 250 g ai/ha): 100
Plant response rating, Wild Poinsettia (wild poinsettia; postemergence, 62 g ai/ha): 50
Plant response rating, Wild Poinsettia (wild poinsettia; postemergence, 500 g ai/ha): 100
Plant response rating, Hairy Beggarticks (hairy beggarticks; Postemergence, 31 g ai/ha): 40
Plant response rating, Hairy Beggarticks (hairy beggarticks; Postemergence, 125 g ai/ha): 50
Plant response rating, Hairy Beggarticks (hairy beggarticks; Postemergence, 250 g ai/ha): 70
Plant response rating, Hairy Beggarticks (hairy beggarticks; postemergence, 62 g ai/ha): 50
Plant response rating, Hairy Beggarticks (hairy beggarticks; postemergence, 500 g ai/ha): 85

CCONC(=O)c1cc(CC)n(Cc2cc(C(F)(F)F)no2)n1 [Compound 125]
Kochia plant response rating (kochia [2]; [3]): 90
Kochia plant response rating (kochia [2]; [4]): 60

CCOc1cc(C(=O)NC2CC2)nn1Cc1ccnc(OC(F)F)c1 [Compound 133]
Kochia plant response rating (kochia [2]; [3]): 100
Kochia plant response rating (kochia [2]; [4]): 90

CCc1cc(C(=O)NCC(F)(F)F)nn1Cc1cc(OC(F)F)nn1C [Compound 206]
Kochia plant response rating (kochia [2]; Postemergence, 125 g ai/ha, 0 to 100 scale, 0 no effect, 100 complete control): 80
Kochia plant response rating (kochia [2]; [3]): 90
